Measurements from patent US10045984B2, “Combination therapy” (priority 2008, dated 2018).

Legend:
[1] = test system: Influenza A, B and Rhino virus; assay: Group B randomized double blind trial in uncomplicated viral upper respiratory tract infection, with case reports; assay type: in vivo, human; conditions: for clinical state: influenza type B; for clinical state at day 5 after starting treatment: n=5 per group
Text: RT-PCR (reverse transcriptase-PCR) was used for subtyping and for detection of rhinovirus. RT-PCR is done on swabs. In the case of the patient groups, RT-PCR determined the presence of subtypes influenza H3, rhino virus and RSV. IFA and RT-PCR was repeated after treatment to ensure viral eradication from the patient.
Group B patients included 20 patients, aged 19 years to 57 years, 14 men and 6 women, with influenza but uncomplicated upper airway infection. […] The viruses identified were Influenza A, B and Rhino virus.
On day 3-5 of the illness (influenza) they received either a zinc/trimethoprim mixture, zinc, trimethoprim alone or vitamin C alone in a randomized double blind trial. The subjects were reviewed at 2 and 5 days after starting treatment.
The Tri-Z dose ranged between 100 mg (82 mg Tri and 18 mg zinc) to 200 mg (164 mg Tri and 36 mg zinc) twice daily. Trimethoprim only was administered in quantities of between 100 mg and 200 mg twice daily. Zinc only was administered in quantities of 50 mg three times daily. Vitamin C was administered in 1 g quantities twice daily.
Points on the graph shown in FIG. 6 are group means (for n=5) which highlights the difference in illness duration. […] Repeat IFA and RT-PCR tests were negative by day 2.
(i) person presented with headache, no photophobia, body ache, feeling tired and lethargic, blocked runny nose, dry throat and feeling hot for the last 4 days. Temperature was 38.5 C, respiratory rate 18/min, heart rate 75/min regular, BP 115/70 mmHg, clear nasal discharge, blood shot eyes, clear throat. Chest was clear with normal breath sounds. No cervical lymph nodes.
Nasal aspirate and throat swab was taken for virus and bacteria. […] Cultures were negative for bacterial growth at 48 and 72 hours.
They were commenced on the zinc/trimethoprim mixture twice daily (initial dose 200 mg of trimethoprim and 100 mg zinc sulphate for first dose then reduced to 100 mg of trimethoprim and 50 mg of zinc sulphate given simultaneously on an empty stomach) for 5 days.
(ii) person presented with body ache, generally feeling tired, blocked runny nose, sore eyes, dry throat, headache and feeling hot for the last 4 days. Their temperature was 38 C. Their chest was clear with normal breath sounds. Respiratory rate 16/min, heart rate 84/min regular, BP 135/78 mmhg. Nasal aspirate and throat swabs was taken for virus and bacteria.
Bacterial culture at 48 and 72 hours were negative.
(iii) person presented with feeling hot, blocked nose that is runny, headache, body ache, dry cough, sore eyes for last 4 days.
Temperature was 38.5 C, heart rate 60/min, respiratory rate 16/min, BP 120/70 mmHg, chest clear with normal breath sounds, no lymphadenopathy, conjunctival congestion, throat clear.
Nasal aspirate and throat swab were taken for virus and bacteria. They were started on Trimethoprim 200 mg twice daily for 5 days.

viral replication = conditions: cited from earlier work
[2] = case (ii) person, day 5 after treatment

COc1cc(Cc2cnc(N)nc2N)cc(OC)c1OC [trimethoprim, 5-(3,4,5-trimethoxybenzyl)pyrimidine-2,4-diamine]
nasal aspirate viral test ([1]; case (iii) person, day 5 of treatment): influenza type B | temperature ([1]; case (iii) person, day 5 of treatment, 38.5 C before): 37.8 C | clinical state ([1]; case (iii) person, 200 mg twice daily, 2 days later): the same | day of the illness when recovery started ([1]; case (iii) person, well enough to go back to work): 14 days | clinical state at day 5 after starting treatment [1]: not back to normal

O=C1O[C@H]([C@@H](O)CO)C(O)=C1O [vitamin C]
clinical state at day 5 after starting treatment [1]: not back to normal

O=S(=O)([O-])[O-].[Zn+2] [zinc sulphate]
repeat viral test ([1]; case (ii) person, 2 days after treatment): influenza type B | control of symptoms [1, 2]: ineffective | nasal aspirate viral test [1, 2]: influenza type B | clinical state ([1]; case (ii) person, 100 mg twice daily, 2 days after treatment): the same | day of the illness of return to work ([1]; case (ii) person, still feeling unwell): 14 days

[Zn] [zinc]
concentration in a subject that affects viral replication (viral replication): 0.05 mMolar | clinical state at day 5 after starting treatment [1]: not back to normal
